# Results reported in paper PMC5736709, “Unravelling the specificity and mechanism of sialic acid recognition by the gut symbiont Ruminococcus gnavus” (Nature Communications, 2017).
# “Also recorded” adds a separate entry of the source.
# Assays:
# RgCBM40 Y210A = target: T1, RgCBM40 Y210A (Mediterraneibacter gnavus (Ruminococcus gnavus), UniProt A7B557, Y210A); test: ITC of sialoglycans binding to RgCBM40 mutant Y210A; design: species or system Ruminococcus gnavus ATCC 29149; settings: for Kd: ITC
# T1 sequence (A7B557 50-237 Y210A): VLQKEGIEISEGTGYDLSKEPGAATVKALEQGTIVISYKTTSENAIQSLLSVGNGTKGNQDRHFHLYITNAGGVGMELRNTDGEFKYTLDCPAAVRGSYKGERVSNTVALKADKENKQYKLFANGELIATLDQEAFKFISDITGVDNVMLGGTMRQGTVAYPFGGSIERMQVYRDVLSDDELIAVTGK
# Description: (§1) Isothermal titration calorimetry (ITC) experiments were performed using the PEAQ-ITC system (Malvern, Malvern, UK) with a cell volume of 200 µl. Prior to titration protein samples were exhaustively dialysed into PBS. The ligand was dissolved in the dialysis buffer. The cell protein concentration was 115 µM (except for mutant I95A where it was 173 µM and the wild-type interaction with 6′SL where it was 230 µM) and the syringe ligand concentration was 10 mM (25 mM for Neu5Ac). Controls with titrant (sugar) injected into buffer only were subtracted from the data. Analysis was performed using Malvern software, using a single-binding site model. The stoichiometry of binding sites was set to 1.0 as this was evident from the crystal structure. Quantitative and most qualitative experiments were carried out in triplicate.
# RgCBM40 Y116A = target: T2, RgCBM40 Y116A (Mediterraneibacter gnavus (Ruminococcus gnavus), UniProt A7B557, Y116A); test: ITC of sialoglycans binding to RgCBM40 mutant Y116A; design: species or system Ruminococcus gnavus ATCC 29149; settings: for Kd: ITC
# T2 sequence (A7B557 50-237 Y116A): T1 sequence (A7B557 50-237 Y210A)
# Description: (§2) Site directed mutagenesis of RgGH33 to introduce the D282A mutation in the active site was carried out using the QuikChange kit, following the manufacturer’s instructions, Agilent (Santa Clara, CA, USA). Site-directed mutants of RgCBM40; I95A, Y116A, E126A, R128A, R204A and double mutant R128A/R204A, were obtained from NZyTech (Lisbon, Portugal). The primers are listed in Supplementary Table 4. The integrity of the RgGH33 and RgCBM40 mutants was checked by circular dichroism (CD).
# as §1
# RgCBM40 I95A = target: T3, RgCBM40 I95A (Mediterraneibacter gnavus (Ruminococcus gnavus), UniProt A7B557, I95A); test: ITC of sialoglycans binding to RgCBM40 mutant I95A; design: species or system Ruminococcus gnavus ATCC 29149; settings: for Kd: 173 µM protein, syringe 10 mM sugar (25 mM for Neu5Ac), * = estimate only
# T3 sequence (A7B557 50-237 I95A): T1 sequence (A7B557 50-237 Y210A)
# Description: as §2, §1
# RgCBM40 R128A = target: T4, RgCBM40 R128A (Mediterraneibacter gnavus (Ruminococcus gnavus), UniProt A7B557, R128A); test: ITC of sialoglycans binding to RgCBM40 mutant R128A; design: species or system Ruminococcus gnavus ATCC 29149; settings: for Kd: ITC
# T4 sequence (A7B557 50-237 R128A): T1 sequence (A7B557 50-237 Y210A)
# Description: as §2, §1
# RgCBM40 = RgCBM40 (Mediterraneibacter gnavus (Ruminococcus gnavus), UniProt A7B557); test: ITC of sialoglycans binding to RgCBM40 wild type; design: species or system Ruminococcus gnavus ATCC 29149; settings: RgCBM40 WT; for Kd: ITC in PBS, 115-230 μM protein in cell, syringe 10 mM sugar (25 mM for Neu5Ac), * = estimate only, Kd too high to determine; for -T∆S / ∆G / ∆H: ITC, SD of three results
# Description: as §1
# SpCBM40_NanC = target: SpCBM40_NanC; design: method as in PMID 26370075; settings: isolated S. pneumoniae SpCBM40_NanC ref 37; cited from earlier work
Structure (SMILES),Binding by ITC (in words) (RgCBM40 Y210A),Kd (RgCBM40 Y210A),Binding by ITC (in words) (RgCBM40 Y116A),Kd (RgCBM40 Y116A),-T∆S (RgCBM40 I95A),∆G (RgCBM40 I95A),∆H (RgCBM40 I95A),Kd (RgCBM40 I95A),Binding by ITC (in words) (RgCBM40 R128A),Kd (RgCBM40 R128A),Kd (RgCBM40),-T∆S (RgCBM40),∆G (RgCBM40),∆H (RgCBM40),Kd (SpCBM40_NanC)
"CC(=O)N[C@H]1[C@H]([C@H](O)[C@H](O)CO)O[C@@](O[C@H]2[C@@H](O)[C@@H](CO)O[C@@H](O[C@H]3[C@H](O)[C@@H](O)C(O)O[C@@H]3CO)[C@@H]2O)(C(=O)O)C[C@@H]1O (stereo partly drawn) [3′SL, α2-3 sialyllactose]",abolished,> 25 mM,abolished,> 25 mM,0.97 ± 0.47 kcal/mol,-3.74 ± 0.04 kcal/mol,-4.71 ± 0.43 kcal/mol,1.82 mM,abolished; also recorded: loss of binding,> 25 mM,0.57 mM,1.47 ± 0.77 kcal/mol,-4.43 ± 0.05 kcal/mol,-5.90 ± 0.72 kcal/mol,~1.5 mM
"CC(=O)N[C@H]1[C@H]([C@H](O)[C@H](O)CO)O[C@@](OC[C@H]2O[C@@H](O[C@H]3[C@H](O)[C@@H](O)C(O)O[C@@H]3CO)[C@H](O)[C@@H](O)[C@H]2O)(C(=O)O)C[C@@H]1O (stereo partly drawn) [6′SL, α2,6-sialyllactose]",abolished,> 25 mM,abolished,> 25 mM,-0.12 ± 0.3 kcal/mol,-3.91 ± 0.07 kcal/mol,-3.79 ± 0.24 kcal/mol,1.37 mM,abolished,> 25 mM,1.7 mM,5.82 ± 0.48 kcal/mol,-3.78 ± 0.05 kcal/mol,-9.61 ± 0.44 kcal/mol,~1.6 mM
